Data published in US20090124502A1, “USE OF SULFURYL FLUORIDE AS A SPROUT […]” (Dow AgroSciences LLC, priority 2007, published 2009).

Assays:
Type in all cases: in vivo, Solanum tuberosum
organic Russet potatoes = test: Sulfuryl fluoride fumigation of stored organic Russet potatoes, physical and sprouting observations (Example 3); set-up: Avg Length of sprouts: unit not given here
Description: A third study was conducted using stored organic Russet potatoes. These potatoes were exposed to […] (0 g-h/m3, 50 g-h/m^3, 100 g-h/m^3 150 g-h/m^3 and 200 g-h/m^3) in a Styrofoam™ fumigation chamber. The exposure time was 12 hrs at ambient temperature of approximately 25° C. and relative humidity of 50 percent. The treatments were replicated 3 times. Each replicate had approximately 5 lbs of potatoes.

Red potatoes = test: Sulfuryl fluoride fumigation of Red potatoes, physical and sprouting observations (Example 1); set-up: key to Tuber Firmness: 1 = firm; 2 = slightly spongy; 3 = very spongy, probably rotten
Description: Russet and red potatoes were purchased from an organic retail store and used for this study. These potatoes were exposed to 4 treatments (0 gram-hour/cubic meter [g-h/m^3], 500 g-h/m^3, 1000 g-h/m^3 and 1500 g-h/m^3) in a Styrofoam™ fumigation chamber. The exposure time was 12 hrs at ambient temperature of approximately 25° C. and relative humidity of 50 percent.

Russet Burbank potatoes = test: Sulfuryl fluoride fumigation of stored Russet Burbank potatoes, physical and sprouting observations (Example 2)
Description: A second study was conducted using stored Russet Burbank potatoes. These potatoes were exposed to 3 treatments (O g-h/m3, 300 g-h/m^3, and 500 g-h/m^3) in a Styrofoam™ fumigation chamber. The exposure time was 12 hrs at ambient temperature of approximately 25° C. and relative humidity of 50 percent. The treatments were replicated 3 times. Each replicate had approximately 10 lbs of potatoes.

[1] = 150 g-h/m^3, 31 days after exposure
[2] = 200 g-h/m^3, 7 days after exposure
[3] = 200 g-h/m^3, 21 days after exposure
[4] = 200 g-h/m^3, 31 days after exposure
[5] = 500 g-h/m^3, 12 hrs exposure, 1 week after exposure
[6] = 500 g-h/m^3, 12 hrs exposure, 2 weeks after exposure
[7] = 500 g-h/m^3, 12 hrs exposure, 3 weeks after exposure
[8] = 500 g-h/m^3, 12 hrs exposure, 10 weeks after exposure
[9] = 1000 g-h/m^3, 12 hrs exposure, 1 week after exposure
[10] = 1000 g-h/m^3, 12 hrs exposure, 2 weeks after exposure
[11] = 1500 g-h/m^3, 12 hrs exposure, 1 week after exposure
[12] = 1500 g-h/m^3, 12 hrs exposure, 2 weeks after exposure
[13] = 300 g-h/m^3, 6 days after exposure, mean of 3 plots
[14] = 300 g-h/m^3, 6 days after exposure, single plots (replicates)
[15] = 300 g-h/m^3, 9 days after exposure, mean
[16] = 500 g-h/m^3, 6 days after exposure, mean of 3 plots
[17] = 500 g-h/m^3, 6 days after exposure, single plots (replicates)
[18] = 500 g-h/m^3, 9 days after exposure, mean

For O=S(=O)(F)F [sulfuryl fluoride], the “Avg. Number of sprouts” value (organic Russet potatoes; [1]) was 0.3, the “Number of Sprouts” value (organic Russet potatoes; [1]) was 17.0 and the “Tuber Firmness” value (organic Russet potatoes; [1]) was 0.0 MM. The “Avg Length of sprouts” value (organic Russet potatoes; [2]) was 0, the “Avg. Number of sprouts” value (organic Russet potatoes; [2]) was 0 and the “Number of Sprouts” value (organic Russet potatoes; [2]) was 0. The “Tuber Firmness” value (organic Russet potatoes; [2]) was 0.0 MM, the “Avg Length of sprouts” value (organic Russet potatoes; [3]) was 0 and the “Avg. Number of sprouts” value (organic Russet potatoes; [3]) was 0. For the same compound, the “Number of Sprouts” value (organic Russet potatoes; [3]) was 0, the “Tuber Firmness” value (organic Russet potatoes; [3]) was 0.0 MM and the “Avg Length of sprouts” value (organic Russet potatoes; [4]) was 0. The “Avg. Number of sprouts” value (organic Russet potatoes; [4]) was 0, the “Number of Sprouts” value (organic Russet potatoes; [4]) was 0 and the “Tuber Firmness” value (organic Russet potatoes; [4]) was 0.0 MM. For the same compound, the phyto-toxic effects (organic Russet potatoes; 200 g-h/m^3, after 31 days) was “without any phyto-toxic effects”, the sprout inhibition (organic Russet potatoes; 200 g-h/m^3, after 31 days) was “best sprout inhibition” and the “peel testing, black spot” value (organic Russet potatoes; all treatments of the study (50 to 200 g-h/m^3)) was “none of the treatments used in this study produced the black spot”. For the same compound, the “Average length of sprout” value (Red potatoes; [5]) was 0 mm, the “Avg. No. of Sprouts” value (Red potatoes; [5]) was 0 and the Tuber Firmness (Red potatoes; [5]) was 1. For the same compound, the “Average length of sprout” value (Red potatoes; [6]) was 0 mm, the “Avg. No. of Sprouts” value (Red potatoes; [6]) was 0 and the Tuber Firmness (Red potatoes; [6]) was 1. The “Avg. No. of Sprouts” value (Red potatoes; [7]) was 1.5, the Tuber Firmness (Red potatoes; [7]) was 1 and the “Avg. No. of Sprouts” value (Red potatoes; [8]) was 1.5. The Tuber Firmness (Red potatoes; [8]) was 1, the “Average length of sprout” value (Red potatoes; [9]) was 0 mm and the “Avg. No. of Sprouts” value (Red potatoes; [9]) was 0. For the same compound, the Tuber Firmness (Red potatoes; [9]) was 2, the “Average length of sprout” value (Red potatoes; [10]) was 0 mm and the “Avg. No. of Sprouts” value (Red potatoes; [10]) was 0. For the same compound, the Tuber Firmness (Red potatoes; [10]) was 2, the “Average length of sprout” value (Red potatoes; [11]) was 0 mm and the “Avg. No. of Sprouts” value (Red potatoes; [11]) was 0. For the same compound, the Tuber Firmness (Red potatoes; [11]) was 3, the “Average length of sprout” value (Red potatoes; [12]) was 0 mm and the “Avg. No. of Sprouts” value (Red potatoes; [12]) was 0. The Tuber Firmness (Red potatoes; [12]) was 3, the “Avg Length of sprouts” value (Russet Burbank potatoes; [13]) was 0.0 b MM and the “Tuber Firmness” value (Russet Burbank potatoes; [13]) was 0.0 a 0-3. The “Avg Length of sprouts” value (Russet Burbank potatoes; [14]) was 0.0 MM, the “Avg. Number of sprouts” value (Russet Burbank potatoes; [14]) was 0.00 and the “Tuber Firmness” value (Russet Burbank potatoes; [14]) was 0.0 0-3. The “Number of Sprouts” value (Russet Burbank potatoes; 300 g-h/m^3, 6 days after exposure, single plots (replicates), 10 pounds) was 0.0, the “Avg Length of sprouts” value (Russet Burbank potatoes; [15]) was 0.0 b and the “Avg. Number of sprouts” value (Russet Burbank potatoes; [15]) was 0.00 b. For the same compound, the “Number of Sprouts” value (Russet Burbank potatoes; [15]) was 0.0 b, the sprout growth (Russet Burbank potatoes; 300 g-h/m^3 and 500 g-h/m^3 treatments, Table 10 and 11 (6 and 9 days after exposure)) was “stopped sprouts from growing” and the “Avg Length of sprouts” value (Russet Burbank potatoes; [16]) was 0.0 b MM. The “Tuber Firmness” value (Russet Burbank potatoes; [16]) was 0.0 a 0-3, the “Avg Length of sprouts” value (Russet Burbank potatoes; [17]) was 0.0 MM and the “Avg. Number of sprouts” value (Russet Burbank potatoes; [17]) was 0.00. The “Tuber Firmness” value (Russet Burbank potatoes; [17]) was 0.0 0-3, the “Number of Sprouts” value (Russet Burbank potatoes; 500 g-h/m^3, 6 days after exposure, single plots (replicates), 10 pounds) was 0.0 and the “Avg Length of sprouts” value (Russet Burbank potatoes; [18]) was 0.0 b. The “Avg. Number of sprouts” value (Russet Burbank potatoes; [18]) was 0.00 b and the “Number of Sprouts” value (Russet Burbank potatoes; [18]) was 0.0 b.
